Experimental data as given in the NIST ThermoML archive (doi:10.1007/s10765-005-8592-5).
Several values for one entry are separate records, joined by “and”; a condition that tells them apart may be missing. Equal entries are not always repeated.

What was measured:
[1] = xn = mol fraction of the nth substance listed; details: Fluid (supercritical or subcritical phases), isochoric method
[2] = molar heat capacity at constant volume; xn = mol fraction of the nth substance listed; details: Fluid (supercritical or subcritical phases), Vacuum adiabatic calorimetry

CC(C)C [2-methylpropane] + CCC
Details | mass density, [1] [kg/m3] | molar heat capacity at constant volume, [2]
270.15 K, 4579 kPa, x2 = 0.498 | 566.8 | 82.79 J/K/mol
275.15 K, 8198 kPa, x2 = 0.498 | 566.3 | 81.61 J/K/mol
280.15 K, 11759 kPa, x2 = 0.498 | 565.9 | 82.79 J/K/mol
285.15 K, 15256 kPa, x2 = 0.498 | 565.5 | 84.27 J/K/mol
290.15 K, 18687 kPa, x2 = 0.498 | 565.1 | 85.14 J/K/mol
295.15 K, 22038 kPa, x2 = 0.498 | 564.8 | 85.81 J/K/mol
300.15 K, 25302 kPa, x2 = 0.498 | 564.5 | 87.7 J/K/mol
305.15 K, 28471 kPa, x2 = 0.498 | 564.2 | 89.64 J/K/mol
315.15 K, 9748 kPa, x2 = 0.498 | 524.3 | 89.39 J/K/mol
320.15 K, 12415 kPa, x2 = 0.498 | 523.9 | 91.23 J/K/mol
325.15 K, 15069 kPa, x2 = 0.498 | 523.6 | 92.35 J/K/mol
330.15 K, 17709 kPa, x2 = 0.498 | 523.3 | 91.89 J/K/mol
335.15 K, 20336 kPa, x2 = 0.498 | 523 | 93.07 J/K/mol
340.15 K, 22950 kPa, x2 = 0.498 | 522.8 | 92.66 J/K/mol
345.15 K, 25550 kPa, x2 = 0.498 | 522.5 | 92.4 J/K/mol
350.15 K, 7962 kPa, x2 = 0.498 | 471.7 | 93.89 J/K/mol
350.15 K, 28136 kPa, x2 = 0.498 | 522.3 | 93.22 J/K/mol
355.15 K, 9814 kPa, x2 = 0.498 | 471.4 | 93.73 J/K/mol
360.15 K, 11663 kPa, x2 = 0.498 | 471.2 | 93.73 J/K/mol
365.15 K, 13509 kPa, x2 = 0.498 | 470.9 | 93.22 J/K/mol
370.15 K, 15351 kPa, x2 = 0.498 | 470.7 | 94.71 J/K/mol
375.15 K, 17187 kPa, x2 = 0.498 | 470.5 | 94.19 J/K/mol
380.15 K, 19017 kPa, x2 = 0.498 | 470.2 | 95.06 J/K/mol
380.15 K, 20994 kPa, x2 = 0.756 | 458.6 | 88.38 J/K/mol
385.15 K, 4713 kPa, x2 = 0.756 | 279.9 | 150.35 J/K/mol
385.15 K, 22824 kPa, x2 = 0.756 | 458.4 | 90.71 J/K/mol
390.15 K, 5229 kPa, x2 = 0.756 | 279.8 | 127.92 J/K/mol
390.15 K, 22647 kPa, x2 = 0.498 | 469.8 | 97.67 J/K/mol
395.15 K, 4489 kPa, x2 = 0.498 | 274.1 | 183.94 J/K/mol
395.15 K, 5756 kPa, x2 = 0.756 | 279.7 | 116.61 J/K/mol
400.15 K, 4949 kPa, x2 = 0.498 | 274 | 160.01 J/K/mol
400.15 K, 6290 kPa, x2 = 0.756 | 279.6 | 105.82 J/K/mol
405.15 K, 5419 kPa, x2 = 0.498 | 273.9 | 144.56 J/K/mol
405.15 K, 6830 kPa, x2 = 0.756 | 279.6 | 101.36 J/K/mol
410.15 K, 5896 kPa, x2 = 0.498 | 273.8 | 131.68 J/K/mol
410.15 K, 7375 kPa, x2 = 0.756 | 279.5 | 96.37 J/K/mol
415.15 K, 4254 kPa, x2 = 0 | 273.8 | 230.8 J/K/mol and 222.08 J/K/mol
415.15 K, 6379 kPa, x2 = 0.498 | 273.7 | 124.31 J/K/mol
415.15 K, 7922 kPa, x2 = 0.756 | 279.4 | 93.23 J/K/mol
420.15 K, 4664 kPa, x2 = 0 | 273.7 | 202.67 J/K/mol
420.15 K, 4665 kPa, x2 = 0 | 273.8 | 202.96 J/K/mol
420.15 K, 6865 kPa, x2 = 0.498 | 273.6 | 115.11 J/K/mol
420.15 K, 8472 kPa, x2 = 0.756 | 279.3 | 90.85 J/K/mol
425.15 K, 5082 kPa, x2 = 0 | 273.7 | 186.05 J/K/mol
425.15 K, 5083 kPa, x2 = 0 | 273.7 | 187.1 J/K/mol
425.15 K, 7354 kPa, x2 = 0.498 | 273.6 | 109.18 J/K/mol

CCC [propane] + CC(C)C
x1 = 1
Details | mass density, [1] [kg/m3] | molar heat capacity at constant volume, [2] [J/K/mol]
270.15 K, 4427 kPa | 539.9 | 71.74
275.15 K, 7953 kPa | 539.6 | 71.26
280.15 K, 11458 kPa | 539.3 | 71.3
285.15 K, 14939 kPa | 539 | 72.63
290.15 K, 18398 kPa | 538.7 | 73.46
295.15 K, 21836 kPa | 538.4 | 74.57
300.15 K, 25251 kPa | 538.1 | 74.61
305.15 K, 28640 kPa | 537.8 | 74.35
310.15 K, 6561 kPa | 490.3 | 74.57
315.15 K, 9049 kPa | 490.1 | 75.23
320.15 K, 11532 kPa | 489.8 | 76.15
325.15 K, 3660 kPa | 454.8 | 77.96
325.15 K, 14008 kPa | 489.6 | 76.37
330.15 K, 5594 kPa | 454.6 | 78.75
330.15 K, 16475 kPa | 489.3 | 76.64
335.15 K, 7530 kPa | 454.3 | 78.31
335.15 K, 18934 kPa | 489.1 | 76.9
340.15 K, 9468 kPa | 454.1 | 77.7
340.15 K, 21386 kPa | 488.9 | 77.21
345.15 K, 11404 kPa | 453.9 | 77.26
345.15 K, 23827 kPa | 488.6 | 76.33
350.15 K, 13339 kPa | 453.7 | 79.46
350.15 K, 26253 kPa | 488.4 | 77.52
355.15 K, 15273 kPa | 453.5 | 77.39
355.15 K, 28668 kPa | 488.2 | 77.43
360.15 K, 17203 kPa | 453.3 | 77.74
365.15 K, 19126 kPa | 453.1 | 78.62
370.15 K, 21044 kPa | 452.9 | 79.15
375.15 K, 5095 kPa | 301.1 | 98.6
380.15 K, 5744 kPa | 301 | 93.04
385.15 K, 6404 kPa | 300.9 | 89.6
390.15 K, 7072 kPa | 300.8 | 86.07
395.15 K, 7746 kPa | 300.7 | 84.84
400.15 K, 8425 kPa | 300.6 | 80.43
405.15 K, 9109 kPa | 300.5 | 78.84
410.15 K, 9795 kPa | 300.4 | 79.99
420.15 K, 11176 kPa | 300.2 | 79.81
425.15 K, 11869 kPa | 300.1 | 81.75
